Counter-ions that a name gives are not always drawn.
Target: alpha-2-receptor
Experiment: Radioligand binding, alpha-2 adrenoceptor, rat cerebral cortices, [^3 H]-rauwolscine
Details: for Ki: rat cerebral cortices, [^3 H]-rauwolscine; for alpha-2 - Selectivity Ki alpha-1/Ki alpha 2: ratio of Ki alpha-1 to Ki alpha-2
Procedure: The compounds were assessed for alpha-adrenergic receptor subtype selectivity by use of radioligand binding techniques as described previously (DeBernardis et.al. J. Med. Chem. 28, 1398 (1985)).

Structure (SMILES) | Ki | alpha-2 - Selectivity Ki alpha-1/Ki alpha 2
COc1ccc2c(c1OC)CCCC2CN(C)CCc1cccs1 (stereo not shown) [Example 86, 1-((N-Methylamino)methyl-N-(2-(2-thienyl)ethyl))-5,6-dimethoxy tetralin hydrochloride] | 3 nM | 165
CN(CCc1cccc(F)c1)CC1CCCc2ccccc21 (stereo not shown) [Example 70, 1-((N-Methylamino)methyl-N-(2-(m-fluorophenyl)ethyl))-tetralin hydrochloride] | 5 nM | 105
COc1ccc2c(c1)CCC2CN1CCC(c2cccc(F)c2)C1 (stereo not shown) [Example 153, 5-Methoxy-1-(3-(m-fluorophenyl)pyrrolidino-1-methyl) indane hydrochloride] | 8.6 nM | 7
COc1cc2c(cc1C)C(CN(C)CCc1ccco1)CCC2 (stereo not shown) [Example 128, 1-((N-Methylamino)methyl-N-(2-(2-furyl)ethyl))-6-methoxy 7-methyl tetralin hydrochloride] | 8 nM | 107
COc1ccc2c(c1)CCCC2CN(C)CCC1CCCC1 (stereo not shown) [Example 6f, 1-((N-methylamino)methyl N-(2-(cyclopentyl)ethyl)) 6-methoxy tetralin hydrochloride] | 6.5 nM | 332
CN(CCc1cccc(O)c1)CC1CCCc2cc(O)ccc21 (stereo not shown) [Example 82, 1-((N-Methylamino)methyl-N-(2-(m-hydroxyphenyl)ethyl))-6-hydroxy tetralin hydrochloride] | 4 nM | 124
Nc1ccc2c(c1)CCCC2CN1CCC(c2ccccc2)C1 (stereo not shown) [Example 156, 6-Amino-1-(3-phenylpyrrolidino-1-methyl) tetralin dihydrochloride] | 6 nM | 21
CN(CCc1cccc(N)c1)CC1CCCc2cc(O)ccc21 (stereo not shown) [Example 68, 1-((N-Methylamino)methyl N-(2-(m-aminophenyl)ethyl))-6-hydroxy tetralin dihydrobromide] | 6 nM | 196
CN(c1ccc2c(c1)CCCC2CN1CCC(c2ccccc2)C1)S(C)(=O)=O (stereo not shown) [Example 193, 6-(N-methylmethylsulfonamido)-1-(3-(phenylpyrrolidino-1-methyl)tetralin hydrochloride] | 1.3 nM | 93
COc1ccc(C)c2c1CCCC2CN(C)CCc1cccs1 (stereo not shown) [Example 36, 1-(N-Methylamino)methyl-N-(2-(2-thienyl)ethyl))-5-methoxy-8-methyl tetralin hydrochloride] | 6.9 nM | 95
COc1cc2c(c(OC)c1)C(CN(C)CCc1cccs1)CCC2 (stereo not shown) [Example 26, 1-((N-Methylamino)methyl-N-(2-(2-thienyl)ethyl))-6,8-dimethoxy tetralin hydrochloride] | 0.6 nM | 292
CN(CCc1cccs1)CC1CCCc2c1ccc(O)c2I (stereo not shown) [Example 115, 1-((N-Methylamino)methyl-N-(2-(2-thienyl)ethyl))-5-iodo-6-hydroxy tetralin hydrochloride] | 3 nM | 177
COc1ccc2c(c1)CCC2CN1CCC(c2cccs2)C1 (stereo not shown) [Example 151, 5-Methoxy1-(3-(2-thienyl)pyrrolidino-1-methyl) indane hydrochloride] | 2.5 nM | 71
CN(CCc1cccs1)CC1CCCc2cc(O)ccc21 (stereo not shown) [Example 7, 1-((N-Methylamino)methyl-N(2-(2-thienyl)ethyl))-6-hydroxy tetralin hydrochloride] | 1.6 nM | 353
CN(CCc1cccs1)CC1CCCc2c1ccc(O)c2O (stereo not shown) [Example 87, 1-((N-Methylamino)methyl-N-(2-(2-thienyl)ethyl))-5,6-dihydroxy tetralin hydrochloride] | 1.6 nM | 278
CN(CCc1ccccc1)CC1CCCc2cc(N)ccc21 (stereo not shown) [Example 114, 1-((N-Methylaminomethyl-N-(2-phenylethyl))-6-aminotetralindihydrochloride] | 5.7 nM | 127
CCCN(CCc1cccs1)CC1CCCc2cc(OC)ccc21 (stereo not shown) [Example 58, 1-((N propylamino)methyl)-N-(2-(2-thienyl)ethyl))-6-methoxy tetralin hydrochloride] | 18 nM | 102
CN(CCc1cccc(F)c1)CC1CCCc2c1ccc(O)c2O (stereo not shown) [Example 85, 1-((N-Methylamino)methyl-N-(2-(m-fluorophenyl)ethyl))-5,6-dihydroxy tetralin hydrochloride] | 1.5 nM | 173
CCN(CCc1cccs1)CC1CCCc2c1ccc1c2OCO1 (stereo not shown) [Example 164, 1-(N-Ethylamino)methyl-N-(2-(2-thienyl)ethyl))-5,6-methylenedioxy tetralin hydrochloride] | 3.7 nM | 258

Structure (SMILES) | Ki | alpha-2 - Selectivity Ki alpha-1/Ki alpha 2
COc1cccc2c1CCCC2CN1CCC(c2cccs2)C1 (stereo not shown) [Example 146, 5-Methoxy1-(3-(2-thienyl)pyrrolidino-1-methyl) tetralin hydrochloride] | 4.9 nM | 35
COc1ccc2c(c1)CCCC2CN(C)CCc1cccc(O)c1 (stereo not shown) [Example 83, 1-((N-Methylamino)methyl-N-(2-(m-hydroxyphenyl)ethyl))-6-methoxy tetralin hydrochloride] | 8 nM | 119
CN(CCc1ccccc1)CC1CCCc2ccccc21 (stereo not shown) [Example 88, 1-(N-Methylamino)methyl-N-(2-phenethyl)) tetralin hydrochloride] | 2 nM | 158
COc1ccc2c(c1)CCCC2CN(C)CCC1CCCS1 (stereo not shown) [Example 6h, 1-((N-methylamino)methyl-N-(2-(2-tetrahydrothienyl)ethyl))-6-methoxy tetralin hydrochloride] | 3.5 nM | 430
CN(CCc1cccs1)CC1CCCc2c1ccc1c2OCO1 (stereo not shown) [Example 23, 1-((N-Methylamino)methyl-N-(2-(2-thienyl)ethyl))-5,6-methylenedioxy tetralin hydrochloride] | 1.7 nM | 262
CCN(CCc1ccco1)CC1CCCc2cc(OC)ccc21 (stereo not shown) [Example 43, 1-((N-Ethylamino)methyl-N-(2-(2-furyl)ethyl))-6-methoxy tetralin hydrochloride] | 6 nM | 233
CCN(CCc1cccs1)CC1CCCc2c1ccc1c2OCCO1 (stereo not shown) [Example 168, 1-((N-Ethylamino)methyl N-(2-(2-thienyl)ethyl))-5,6-ethylenedioxy tetralin hydrochloride] | 6.6 nM | 125
CN(CCc1cccc(F)c1)CC1CCCc2c1ccc1c2OCCO1 (stereo not shown) [Example 167, 1-((N-Methylamino)methyl N-(2-m-fluorophenethyl))-5,6-ethylenedioxy tetralin methanesulfonate] | 4.2 nM | 85
CCOc1ccc2c(c1)CCCC2CN(C)CCc1cccc(N)c1 (stereo not shown) [Example 69, 1-((N-Methylamino)methyl-N-(2-(m-aminophenyl)ethyl))-6-ethoxy tetralin dihydrochloride] | 13 nM | 98
COc1ccc2c(c1)CCCC2CN(C)CCc1cccc(N)c1 (stereo not shown) [Example 67, 1 ((N-Methylamino)methyl-N-(2-(maminophenyl)ethyl))-6-methoxy tetralin dihydrochloride] | 6 nM | 195
COc1ccc2c(c1)CCCC2CN1CCC(c2ccccc2)C1 (stereo not shown) [Example 121, 6-Methoxy-1-(3-phenylpyrrolidino-1-methyl) tetralin hydrochloride] | 1 nM | 95
COc1cc2c(cc1F)C(CN(C)CCc1ccco1)CCC2 (stereo not shown) [Example 141, 1-((N-methylamino)methyl-N-(2-(2-furyl)ethyl))-6-methoxy-7-fluoro tetralin methanesulfonate] | 4.8 nM | 183
COc1ccc2c(c1)CCC2CN(C)CCc1cccs1 (stereo not shown) [Example 37, 1-((N-Methylamino)methyl-N-(2-(2-thienyl)ethyl))-5-methoxy indane hydrochloride] | 3.7 nM | 174
COc1ccc2c(c1)C(CN(C)CCc1cccs1)CCC2 (stereo not shown) [Example 27, 1-((N-Methylamino)methyl-N-(2-(2-thienyl)ethyl))-7-methoxy tetralin hydrochloride] | 2 nM | 263
COc1ccc2c(c1)CCCC2CN(C)CCc1ccsc1 (stereo not shown) [Example 6d, 1--((N-methylamino)methyl N-(2-(3-thienyl)ethyl))-6-methoxy tetralin hydrochloride] | 1.5 nM | 333
CN(CCc1cccs1)CC1CCCc2ccccc21 (stereo not shown) [Example 22, 1-((N-Methylamino)methyl-N-(2-(2-thienyl)ethyl)) tetralin hydrochloride] | 1.3 nM | 535
CCN(CCc1cccc(F)c1)CC1CCCc2cc(OC)ccc21 (stereo not shown) [Example 42, 1-((N-Ethylamino)methyl-N-(2-(m-fluorophenyl)ethyl))-6-methoxy tetralin hydrochloride] | 6.6 nM | 159
c1csc(C2CCN(CC3CCCc4c3ccc3c4OCO3)C2)c1 (stereo not shown) [Example 144, 5,6-Methylenedioxy-1-(3-(2-thienyl)pyrrolidino-1-methyl) tetralin methanesulfonate] | 1.2 nM | 204
CN(CCc1cccs1)CC1CCCc2c(Cl)cccc21 (stereo not shown) [Example 129, 1-((N-Methylamino)methyl-N-(2-(2-thieny)ethyl))-5-chloro tetralin hydrochloride] | 3.6 nM | 55
